In PubChem BioAssay AID1259407 (Chemical Carcinogenesis Research Information System (CCRIS), 2018):
Active and inactive are the calls of the source. How the calls were made is not given here.

Test system: CCRIS mutagenicity, Ames/micronucleus/aberration tests
Experiment: CCRIS mutagenicity studies
[1] = Test System: AMES SALMONELLA TYPHIMURIUM, Strain/Indicator: TA98, Metabolic Activation: NONE, Method: STANDARD PLATE
[2] = Test System: AMES SALMONELLA TYPHIMURIUM, Strain/Indicator: TA100, Metabolic Activation: NONE, Method: STANDARD PLATE

For `Brc1c(Br)c(Br)c(Br)c(Br)c1Br`, the mutagenic call (Test System: AMES SALMONELLA TYPHIMURIUM, Strain/Indicator: TA98, Metabolic Activation: HAMSTER, LIVER, S-9, AROCLOR 1254, Method: PREINCUBATION) was “inactive; negative”, the mutagenic call (Test System: AMES SALMONELLA TYPHIMURIUM, Strain/Indicator: TA98, Metabolic Activation: NONE, Method: PREINCUBATION) was “inactive; negative” and the mutagenic call (Test System: AMES SALMONELLA TYPHIMURIUM, Strain/Indicator: TA98, Metabolic Activation: RAT, LIVER, S-9, AROCLOR 1254, Method: PREINCUBATION) was “inactive; negative”. The mutagenic call (Test System: AMES SALMONELLA TYPHIMURIUM, Strain/Indicator: TA100, Metabolic Activation: HAMSTER, LIVER, S-9, AROCLOR 1254, Method: PREINCUBATION) was “inactive; negative”, the mutagenic call (Test System: AMES SALMONELLA TYPHIMURIUM, Strain/Indicator: TA100, Metabolic Activation: NONE, Method: PREINCUBATION) was “inactive; negative” and the mutagenic call (Test System: AMES SALMONELLA TYPHIMURIUM, Strain/Indicator: TA100, Metabolic Activation: RAT, LIVER, S-9, AROCLOR 1254, Method: PREINCUBATION) was “inactive; negative”. For the same compound, the mutagenic call (Test System: AMES SALMONELLA TYPHIMURIUM, Strain/Indicator: TA1535, Metabolic Activation: HAMSTER, LIVER, S-9, AROCLOR 1254, Method: PREINCUBATION) was “inactive; negative”, the mutagenic call (Test System: AMES SALMONELLA TYPHIMURIUM, Strain/Indicator: TA1535, Metabolic Activation: NONE, Method: PREINCUBATION) was “inactive; negative” and the mutagenic call (Test System: AMES SALMONELLA TYPHIMURIUM, Strain/Indicator: TA1535, Metabolic Activation: RAT, LIVER, S-9, AROCLOR 1254, Method: PREINCUBATION) was “inactive; negative”. The mutagenic call (Test System: AMES SALMONELLA TYPHIMURIUM, Strain/Indicator: TA1537, Metabolic Activation: HAMSTER, LIVER, S-9, AROCLOR 1254, Method: PREINCUBATION) was “inactive; negative”, the mutagenic call (Test System: AMES SALMONELLA TYPHIMURIUM, Strain/Indicator: TA1537, Metabolic Activation: NONE, Method: PREINCUBATION) was “inactive; negative” and the mutagenic call (Test System: AMES SALMONELLA TYPHIMURIUM, Strain/Indicator: TA1537, Metabolic Activation: RAT, LIVER, S-9, AROCLOR 1254, Method: PREINCUBATION) was “inactive; negative”.

For `O=C(Nc1ccc(Br)cc1)c1cc(Br)cc(Br)c1O`, the mutagenic call [1] was “inactive; negative”, the mutagenic call (Test System: AMES SALMONELLA TYPHIMURIUM, Strain/Indicator: TA98, Metabolic Activation: RAT, LIVER, S-9, KANECHLOR 400, Method: STANDARD PLATE) was “inactive; negative” and the mutagenic call [2] was “inactive; negative”. For the same compound, the mutagenic call (Test System: AMES SALMONELLA TYPHIMURIUM, Strain/Indicator: TA100, Metabolic Activation: RAT, LIVER, S-9, KANECHLOR 400, Method: STANDARD PLATE) was “inactive; negative”, the mutagenic call (Test System: AMES SALMONELLA TYPHIMURIUM, Strain/Indicator: TA1535, Metabolic Activation: NONE, Method: STANDARD PLATE) was “inactive; negative” and the mutagenic call (Test System: AMES SALMONELLA TYPHIMURIUM, Strain/Indicator: TA1535, Metabolic Activation: RAT, LIVER, S-9, KANECHLOR 400, Method: STANDARD PLATE) was “inactive; negative”. For the same compound, the mutagenic call (Test System: AMES SALMONELLA TYPHIMURIUM, Strain/Indicator: TA1537, Metabolic Activation: NONE, Method: STANDARD PLATE) was “inactive; negative”, the mutagenic call (Test System: AMES SALMONELLA TYPHIMURIUM, Strain/Indicator: TA1537, Metabolic Activation: RAT, LIVER, S-9, KANECHLOR 400, Method: STANDARD PLATE) was “inactive; negative” and the mutagenic call (Test System: AMES SALMONELLA TYPHIMURIUM, Strain/Indicator: TA1538, Metabolic Activation: NONE, Method: STANDARD PLATE) was “inactive; negative”. The mutagenic call (Test System: AMES SALMONELLA TYPHIMURIUM, Strain/Indicator: TA1538, Metabolic Activation: RAT, LIVER, S-9, KANECHLOR 400, Method: STANDARD PLATE) was “inactive; negative”.

With `OCc1ccnc2ccccc12` the mutagenic call (Test System: AMES SALMONELLA TYPHIMURIUM, Strain/Indicator: TA100, Metabolic Activation: RAT, LIVER, S-9, Method: PREINCUBATION) was “inactive; negative”.

With `CCC(=O)NCc1ccccc1` the mutagenic call [2] was “inactive; negative”.

`CSCC[C@H](NC(=O)COc1ccc(Cl)cc1Cl)C(=O)O` was tested, and the mutagenic call (Test System: AMES SALMONELLA TYPHIMURIUM, Strain/Indicator: TA97, Metabolic Activation: RAT, LIVER, S-9, AROCLOR 1254, Method: STANDARD PLATE) was “inactive; negative”, the mutagenic call (Test System: AMES SALMONELLA TYPHIMURIUM, Strain/Indicator: TA97, Metabolic Activation: WOODCHUCK, LIVER, S-9, 3-METHYLCHOLANTHRENE, Method: STANDARD PLATE) was “inactive; negative” and the mutagenic call (Test System: AMES SALMONELLA TYPHIMURIUM, Strain/Indicator: TA98, Metabolic Activation: RAT, LIVER, S-9, AROCLOR 1254, Method: STANDARD PLATE) was “inactive; negative”. For the same compound, the mutagenic call (Test System: AMES SALMONELLA TYPHIMURIUM, Strain/Indicator: TA98, Metabolic Activation: WOODCHUCK, LIVER, S-9, 3-METHYLCHOLANTHRENE, Method: STANDARD PLATE) was “inactive; negative”, the mutagenic call (Test System: AMES SALMONELLA TYPHIMURIUM, Strain/Indicator: TA100, Metabolic Activation: RAT, LIVER, S-9, AROCLOR 1254, Method: STANDARD PLATE) was “inactive; negative” and the mutagenic call (Test System: AMES SALMONELLA TYPHIMURIUM, Strain/Indicator: TA100, Metabolic Activation: WOODCHUCK, LIVER, S-9, 3-METHYLCHOLANTHRENE, Method: STANDARD PLATE) was “inactive; negative”. For the same compound, the mutagenic call (Test System: AMES SALMONELLA TYPHIMURIUM, Strain/Indicator: TA1535, Metabolic Activation: RAT, LIVER, S-9, AROCLOR 1254, Method: STANDARD PLATE) was “inactive; negative”, the mutagenic call (Test System: AMES SALMONELLA TYPHIMURIUM, Strain/Indicator: TA1535, Metabolic Activation: WOODCHUCK, LIVER, S-9, 3-METHYLCHOLANTHRENE, Method: STANDARD PLATE) was “inactive; negative” and the mutagenic call (Test System: AMES SALMONELLA TYPHIMURIUM, Strain/Indicator: TA1538, Metabolic Activation: RAT, LIVER, S-9, AROCLOR 1254, Method: STANDARD PLATE) was “inactive; negative”. The mutagenic call (Test System: AMES SALMONELLA TYPHIMURIUM, Strain/Indicator: TA1538, Metabolic Activation: WOODCHUCK, LIVER, S-9, 3-METHYLCHOLANTHRENE, Method: STANDARD PLATE) was “inactive; negative”.

In the case of `CCCCNNCCCC`, the mutagenic call (Test System: AMES SALMONELLA TYPHIMURIUM, Strain/Indicator: TA100, Metabolic Activation: NONE, Method: PREINCUBATION (11 HR GROWTH PERIOD FOR BACTERIA)) is reported as “active; positive”, the mutagenic call (Test System: AMES SALMONELLA TYPHIMURIUM, Strain/Indicator: TA100, Metabolic Activation: RAT, LIVER, S-9, PCB, Method: PREINCUBATION (11 HR GROWTH PERIOD FOR BACTERIA)) is reported as “inactive; negative” and the mutagenic call (Test System: AMES SALMONELLA TYPHIMURIUM, Strain/Indicator: TA102, Metabolic Activation: NONE, Method: PREINCUBATION (5 OR 7 HR GROWTH PERIOD FOR BACTERIA)) is reported as “active; positive”. For the same compound, the mutagenic call (Test System: AMES SALMONELLA TYPHIMURIUM, Strain/Indicator: TA102, Metabolic Activation: RAT, LIVER, S-9, PCB, Method: PREINCUBATION (5 OR 7 HR GROWTH PERIOD FOR BACTERIA)) was “active; positive”.

For `C=CCSS(=O)CC=C` (stereo not given), the mutagenic call (End Point: IN VITRO CHROMOSOMAL ABERRATIONS, Test System: HUMAN PERIPHERAL BLOOD LYMPHOCYTES, Metabolic Activation: NONE) was “inactive; negative” and the mutagenic call (End Point: IN VITRO CHROMOSOMAL ABERRATIONS, Test System: HUMAN PERIPHERAL BLOOD LYMPHOCYTES, Metabolic Activation: RAT, LIVER, S-9, PHENOBARBITONE) was “inactive; negative”.

In the case of `C[n+]1ccc(-c2cc[n+](C)cc2)cc1`, the mutagenic call (End Point: IN VIVO MICRONUCLEUS, Test System: BONE MARROW POLYCHROMATIC ERYTHROCYTES, Species: RAT, Strain/Sex: SPRAGUE DAWLEY/MALE, Route: DERMAL) is reported as “active; positive; maximal response at 48 hr”, the mutagenic call (Test System: AMES SALMONELLA TYPHIMURIUM, Strain/Indicator: TA102, Metabolic Activation: NONE, Method: STANDARD PLATE) is reported as “inactive; negative” and the mutagenic call (Test System: AMES SALMONELLA TYPHIMURIUM, Strain/Indicator: TA2638, Metabolic Activation: NONE, Method: STANDARD PLATE) is reported as “inactive; negative”. For the same compound, the mutagenic call (Test System: CHINESE HAMSTER G10, Strain/Indicator: G10 (GPT)/6-THIOGUANINE, Metabolic Activation: NONE) was “inactive; negative”, the mutagenic call (Test System: CHINESE HAMSTER G12, Strain/Indicator: G12 (GPT)/6-THIOGUANINE, Metabolic Activation: NONE) was “inactive; negative” and the mutagenic call (Test System: CHINESE HAMSTER V-79, Strain/Indicator: V-79 (HPRT)/6-THIOGUANINE, Metabolic Activation: NONE) was “inactive; negative”. For the same compound, the mutagenic call (Test System: E. COLI, Strain/Indicator: WP2 (PKM101), Metabolic Activation: NONE, Method: STANDARD PLATE) was “inactive; negative” and the mutagenic call (Test System: E. COLI, Strain/Indicator: WP2 UVRA (PKM101), Metabolic Activation: NONE, Method: STANDARD PLATE) was “inactive; negative”.

For `C1=Cc2c3ccccc3cc3cc4ccccc4c1c23`, the mutagenic call [1] was “active; positive” and the mutagenic call (Test System: AMES SALMONELLA TYPHIMURIUM, Strain/Indicator: TA98, Metabolic Activation: RAT, LIVER, S-9, AROCLOR 1254 (0.127 OR 1.27 MG S-9 PROTEIN), Method: STANDARD PLATE) was “active; positive”.
